Data published in patent publication US9309238B2, “Imidazo [1,2-a]pyridine compounds, synthesis thereof, and methods of using same” (priority 2009, dated 2016).
≈ marks a conversion by molar mass, not a printed value. Like-named read-outs stand apart in the source and are kept apart here.

Key:
Assay in all cases: microbe, parasite or virus in culture
[1] = test system: rINH (Isoniazid-resistant TB strain); type: cell-based, Mycobacterium tuberculosis
[2] = test system: rRMP (Rifampicin-resistant TB strain); type: cell-based, Mycobacterium tuberculosis
[3] = test system: rKM (Kanamycin-resistant TB strain); type: cell-based, Mycobacterium tuberculosis
[4] = test system: rSM (Streptomycin-resistant TB strain); type: cell-based, Mycobacterium tuberculosis
[5] = test system: MDR-TB strain resistant to HREZRbTh; type: cell-based; conditions: Mycobacterium tuberculosis
[6] = test system: MDR-TB strain resistant to HCPTh; type: cell-based; conditions: Mycobacterium tuberculosis
[7] = test system: MDR-TB strain resistant to HRESP; type: cell-based; conditions: Mycobacterium tuberculosis
[8] = test system: MDR-TB strain resistant to HREKP; type: cell-based; conditions: Mycobacterium tuberculosis
[9] = test system: MDR-TB strain resistant to HREZSP; type: cell-based; conditions: Mycobacterium tuberculosis
[10] = test system: MDR-TB strain resistant to HRERb* (column 5); type: cell-based; conditions: Mycobacterium tuberculosis
[11] = test system: MDR-TB strain resistant to HREZSKPTh; type: cell-based; conditions: Mycobacterium tuberculosis
[12] = test system: MDR-TB strain resistant to HRERb* (column 8); type: cell-based; conditions: Mycobacterium tuberculosis
[13] = test system: extreme drug-resistant TB strain HRESPOCTh; type: cell-based; conditions: Mycobacterium tuberculosis
[14] = test system: extreme drug-resistant TB strain HRESPO; type: cell-based; conditions: Mycobacterium tuberculosis
[15] = test system: MDR-TB strain resistant to HRERb* (column 7); type: cell-based; conditions: Mycobacterium tuberculosis
[16] = test system: extreme drug-resistant TB strain HREPKOTh; type: cell-based; conditions: Mycobacterium tuberculosis
[17] = single drug resistant strain rKM
[18] = single drug resistant strain rINH
[19] = single drug resistant strain rRMP

What does the source list for NNC(=O)c1ccncc1 [INH, Isoniazid, reference compound]?
MIC90 ([1]; Mycobacterium tuberculosis): > 8 µM; MIC90 ([2]; Mycobacterium tuberculosis): 0.23 µM (≈ 0.0315 µg/mL)

For COc1c(N2C[C@@H]3CCCN[C@@H]3C2)c(F)cc2c(=O)c(C(=O)O)cn(C3CC3)c12 [Moxifloxacin, reference compound], which MIC90 ([3]; Mycobacterium tuberculosis) is on record?
The MIC90 was 0.24 µM (≈ 0.0963 µg/mL).

And the MIC90 ([1]; Mycobacterium tuberculosis)?
The MIC90 was 0.12 µM (≈ 0.0482 µg/mL).

What about the MIC90 ([4]; Mycobacterium tuberculosis) of the same molecule?
Its MIC90 is 0.15 µM (≈ 0.0602 µg/mL).

And the MIC90 ([2]; Mycobacterium tuberculosis)?
Its MIC90 is 0.1 µM (≈ 0.0401 µg/mL).

How did the MIC90 ([3]; Mycobacterium tuberculosis) turn out when Cc1ccn2c(C(=O)NCc3ccccc3)c(C)nc2c1 [ND-8454, N-benzyl-2,7-dimethylimidazo[1,2-a]pyridine-3-carboxamide] was run?
The MIC90 was 1.07 µM (≈ 0.299 µg/mL).

What about the MIC90 [5] of the same molecule?
The MIC90 was 0.039 µg/mL (≈ 0.14 µM).

What about the MIC90 [6] of the same molecule?
Its MIC90 is 0.313 µg/mL (≈ 1.12 µM).

What about the MIC90 ([1]; Mycobacterium tuberculosis) of the same molecule?
The MIC90 was 0.33 µM (≈ 0.0922 µg/mL).

And the MIC90 [7]?
The MIC90 was 0.625 µg/mL (≈ 2.24 µM).

What about the MIC90 ([4]; Mycobacterium tuberculosis) of the same molecule?
The MIC90 was 1.02 µM (≈ 0.285 µg/mL).

What about the MIC90 [8] of the same molecule?
The MIC90 was 0.078 µg/mL (≈ 0.279 µM).

And the MIC90 [9]?
The MIC90 was 0.312 µg/mL (≈ 1.12 µM).

What about the MIC90 ([2]; Mycobacterium tuberculosis) of the same molecule?
The MIC90 was 0.28 µM (≈ 0.0782 µg/mL).

And the MIC90 [10]?
Its MIC90 is 0.039 µg/mL (≈ 0.14 µM).

And the MIC90 [11]?
The MIC90 was 0.019 µg/mL (≈ 0.068 µM).

What about the MIC90 [12] of the same molecule?
Its MIC90 is 0.078 µg/mL (≈ 0.279 µM).

What about the MIC90 [13] of the same molecule?
Its MIC90 is 0.02 µg/mL (≈ 0.0716 µM).

And the MIC90 [14]?
Its MIC90 is 0.039 µg/mL (≈ 0.14 µM).

And the MIC90 [15]?
The MIC90 was 0.039 µg/mL (≈ 0.14 µM).

What about the MIC90 [16] of the same molecule?
Its MIC90 is 0.02 µg/mL (≈ 0.0716 µM).

For Cc1ccn2c(C(=O)NCc3cccc(F)c3)c(C)nc2c1 [ND-9361], which MIC90 [5] is on record?
The MIC90 was 0.019 µg/mL (≈ 0.0639 µM).

What about the MIC90 [7] of the same molecule?
The MIC90 was 0.078 µg/mL (≈ 0.262 µM).

What about the MIC90 [8] of the same molecule?
The MIC90 was 0.078 µg/mL (≈ 0.262 µM).

What about the MIC90 [9] of the same molecule?
The MIC90 was 0.019 µg/mL (≈ 0.0639 µM).

And the MIC90 [10]?
Its MIC90 is 0.039 µg/mL (≈ 0.131 µM).

And the MIC90 [11]?
Its MIC90 is 0.019 µg/mL (≈ 0.0639 µM).

And the MIC90 [12]?
The MIC90 was 0.078 µg/mL (≈ 0.262 µM).

And the MIC90 [13]?
Its MIC90 is 0.02 µg/mL (≈ 0.0673 µM).

What about the MIC90 [14] of the same molecule?
Its MIC90 is 0.01 µg/mL (≈ 0.0336 µM).

What about the MIC90 [15] of the same molecule?
Its MIC90 is 0.01 µg/mL (≈ 0.0336 µM).

What about the MIC90 [16] of the same molecule?
Its MIC90 is 0.01 µg/mL (≈ 0.0336 µM).

How did the MIC90 [3, 17] turn out when Cc1ccn2c(C(=O)NCc3ccc(Oc4ccc(F)cc4)cc3)c(C)nc2c1 [ND-9758] was run?
Its MIC90 is 0.01 µM (≈ 0.00389 µg/mL).

What about the MIC90 [1, 18] of the same molecule?
The MIC90 was 0.003 µM (≈ 0.00117 µg/mL).

What about the MIC90 [4] of the same molecule?
The MIC90 was 0.01 µM (≈ 0.00389 µg/mL).

What about the MIC90 [2, 19] of the same molecule?
The MIC90 was under 0.002 µM.

For Cc1ccn2c(C(=O)NCc3cccc(OC(C)C)c3)c(C)nc2c1 [ND-9872], which MIC90 [3, 17] is on record?
The MIC90 was 0.89 µM (≈ 0.3 µg/mL).

What about the MIC90 [1, 18] of the same molecule?
Its MIC90 is 0.28 µM (≈ 0.0945 µg/mL).

And the MIC90 [4]?
The MIC90 was 0.87 µM (≈ 0.294 µg/mL).

And the MIC90 [2, 19]?
Its MIC90 is 0.23 µM (≈ 0.0776 µg/mL).

Which MIC90 [3, 17] does the source give for Cc1ccn2c(C(=O)NCc3ncc(C(F)(F)F)cc3Cl)c(C)nc2c1 [ND-9902] here?
The MIC90 was 2.96 µM (≈ 1.13 µg/mL).

What about the MIC90 [1, 18] of the same molecule?
The MIC90 was 1.10 µM (≈ 0.421 µg/mL).

And the MIC90 [4]?
Its MIC90 is 2.95 µM (≈ 1.13 µg/mL).

And the MIC90 [2, 19]?
Its MIC90 is 0.74 µM (≈ 0.283 µg/mL).

What does the source list for Cc1ccc2nc(C)c(C(=O)NCc3ccc(S(C)(=O)=O)cc3)n2c1 [ND-9965]?
MIC90 [3, 17]: 1.98 µM (≈ 0.708 µg/mL); MIC90 [1, 18]: 0.57 µM (≈ 0.204 µg/mL); MIC90 [4]: 2.31 µM (≈ 0.826 µg/mL); MIC90 [2, 19]: 0.54 µM (≈ 0.193 µg/mL)

Which results are given for CO[C@H]1/C=C/O[C@@]2(C)Oc3c(C)c(O)c4c(O)c(c(/C=N/N5CCN(C)CC5)c(O)c4c3C2=O)NC(=O)/C(C)=C\C=C\[C@H](C)[C@H](O)[C@@H](C)[C@@H](O)[C@@H](C)[C@H](OC(C)=O)[C@@H]1C [RMP, Rifampicin, reference compound]?
MIC90 ([1]; Mycobacterium tuberculosis): 0.01 µM (≈ 0.00823 µg/mL); MIC90 ([2]; Mycobacterium tuberculosis): > 1 µM
